Our source for the inhibition and kinact/KI values is patent US5658906A, “Cysteine protease and serine protease inhibitors” (Cephalon, Inc., priority 1996, dated 1997).

In one assay the target is T1, α-chymotrypsin (Bos taurus, UniProt P00766).
T1 construct: purchased Sigma Chem. Co. C-3142
Description: Inhibition of the serine protease α-chymotrypsin (Succ-Ala-Ala-Pro-Phe-AMC hydrolysis). The format is biochemical. Particulars: pH 7.5, 0.03 mM substrate. The protocol:
Additionally,because α-chymotrypsin is not a calcium sensitive enzyme and is constituitively active, following addition of inhibitor stocks to the 96 well plates, 100 ul of a 2 fold concentrated stock of enzyme in dilution buffer was first added and the reaction started by addition of 100 ul of a 2 fold concentrated stock of substrate in assay buffer. Substrate hydrolysis was monitored every 5 minutes up to 30 minutes using a Fluoroskan II ([…]).

A further assay has as its target T2, Cathepsin B (Homo sapiens, UniProt P07858).
T2 construct: purchased Calbiochem 219364
As to the kind of experiment: Inhibition and rate of inactivation of cathepsin B (Cbz-Phe-Arg-AMC hydrolysis). The format is biochemical. Particulars: pH 6.0, 0.1 mM substrate, read-out: k2 (second order rate constant of inactivation), C = Cathepsin B.

As a reminder, the inhibition is the drop in the measured response relative to a control, in per cent. Turning to `CC[C@H](NC(=O)[C@H](CC(C)C)NC(=O)OCc1ccccc1)C(=O)COn1nnc2ccccc21` [Example 5, 1-[N-[N-Benzyloxycarbonyl-L-leucyl]-3S-3-amino-2-oxopentyloxy] benzotriazole], the inhibition at 10 µM on α-chymotrypsin is 34%. Besides, the kinact/KI on Cathepsin B came to 443000 M⁻¹ s⁻¹.
For `CC(C)C[C@H](NC(=O)OCc1ccccc1)C(=O)N[C@@H](Cc1ccccc1)C(=O)COn1nnc2cccnc21` [Example 6, 3-[N-[N-Benzyloxycarbonyl-L-leucyl]-3S-4-phenyl-3-amino-2-oxobutyloxy]-3H-triazolo[4,5-b]pyridine], in that order: 81% and 107000 M⁻¹ s⁻¹.
The like results for `CC(C)C[C@H](NC(=O)OCc1ccccc1)C(=O)N[C@@H](Cc1ccccc1)C(=O)COn1nnc2ccccc21` [Example 3, 1-[N-[N-Benzyloxycarbonyl-L-leucyl]-3S-4-phenyl-3-amino-2-oxobutyloxy]benzotriazole] were, in that order, 86% and 117000 M⁻¹ s⁻¹.
For `CC(C)C[C@H](NC(=O)OCc1ccccc1)C(=O)N[C@@H](Cc1ccccc1)C(=O)COn1nnc2ccccc2c1=O` [Example 28, 1-[N-[N-Benzyloxycarbonyl-L-leucyl]-3S-4-phenyl-3-amino-2-oxobutyloxy]-3-benzotriazin-4-one], in that order: 82% and 7000 M⁻¹ s⁻¹.
